Tests used:
phospho-CDK1 (Tyr15) = assay: Immunoblotting of phospho-CDK1; assay type: cell-based, human; settings: synchronized HEK293T and MDA-MB-231 cells, 6 h drug treatment
[1] = tested on: phosphorylated TCTP (PLK1 substrate); assay: Immunoblotting of phospho-TCTP; assay type: cell-based, human; settings: synchronized HEK293T and MDA-MB-231 cells, 6 h drug treatment
[2] = tested on: HEK293T, MM1.S, and MDA-MB-231 cells; assay: Cell viability across HEK293T, MM1.S and MDA-MB-231; assay type: cell-based; settings: Homo sapiens, 72 h, read-out: cell viability IC50 values (range over cell lines)
Myt1-KD = biological target: T1, Myt1-KD (Homo sapiens, UniProt Q99640); assay: DSF thermal shift, Myt1 kinase domain; assay type: binding; settings: DSF screen, 100 μM
T1 sequence (Q99640 75-361): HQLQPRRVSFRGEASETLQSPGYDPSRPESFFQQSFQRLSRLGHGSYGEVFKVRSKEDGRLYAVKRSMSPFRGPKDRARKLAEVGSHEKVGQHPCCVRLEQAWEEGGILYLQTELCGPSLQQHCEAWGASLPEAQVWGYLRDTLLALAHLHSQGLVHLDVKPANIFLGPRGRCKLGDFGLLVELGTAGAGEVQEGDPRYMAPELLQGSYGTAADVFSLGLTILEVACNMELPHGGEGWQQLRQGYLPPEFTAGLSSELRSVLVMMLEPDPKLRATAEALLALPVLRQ

| binding potential for Myt1 (in words) (Myt1-KD) | Compound | effect on CDK1 phosphorylation (phospho-CDK1 (Tyr15)) | reduction of phosphorylation levels, times less effective than BI-2536 and 1 [1] | IC50 [2] [nM] |
| --- | --- | --- | --- | --- |
| – | C=CCn1c(=O)c2cnc(Nc3ccc(N4CCN(C)CC4)cc3)nc2n1-c1cccc(C(C)(C)O)n1 [MK-1775] | reducing the levels of phosphorylated CDK1 | about 10 times | 290 to 310 |
| no binding potential | CC(=O)NCC(=O)N1[C@@H]2CC[C@H]1c1ccc(Nc3ncc(C(F)(F)F)c(NC4CCC4)n3)cc12 [compound 2] | – | – | – |
| – | C[C@@H](Oc1cc(-n2cnc3ccc(CN4CCN(C)CC4)cc32)sc1C(N)=O)c1ccccc1C(F)(F)F [compound 1, (R)-5-(6-((4-methylpiperazin-1-yl)methyl)-1H-benzo[d]imidazol-1-yl)-3-(1-(2-(trifluoromethyl)phenyl)-ethoxy)thiophene-2-carboxamide] | no effect | – | – |
| – | CC[C@@H]1C(=O)N(C)c2cnc(Nc3ccc(C(=O)NC4CCN(C)CC4)cc3OC)nc2N1C1CCCC1 [BI-2536] | no effect | – | – |
